Biological target: T1, bacteriophage T4 DNA polymerase (Enterobacteria phage T4, UniProt P04415)
T1 construct: made in house
T1 sequence (P04415 1-898): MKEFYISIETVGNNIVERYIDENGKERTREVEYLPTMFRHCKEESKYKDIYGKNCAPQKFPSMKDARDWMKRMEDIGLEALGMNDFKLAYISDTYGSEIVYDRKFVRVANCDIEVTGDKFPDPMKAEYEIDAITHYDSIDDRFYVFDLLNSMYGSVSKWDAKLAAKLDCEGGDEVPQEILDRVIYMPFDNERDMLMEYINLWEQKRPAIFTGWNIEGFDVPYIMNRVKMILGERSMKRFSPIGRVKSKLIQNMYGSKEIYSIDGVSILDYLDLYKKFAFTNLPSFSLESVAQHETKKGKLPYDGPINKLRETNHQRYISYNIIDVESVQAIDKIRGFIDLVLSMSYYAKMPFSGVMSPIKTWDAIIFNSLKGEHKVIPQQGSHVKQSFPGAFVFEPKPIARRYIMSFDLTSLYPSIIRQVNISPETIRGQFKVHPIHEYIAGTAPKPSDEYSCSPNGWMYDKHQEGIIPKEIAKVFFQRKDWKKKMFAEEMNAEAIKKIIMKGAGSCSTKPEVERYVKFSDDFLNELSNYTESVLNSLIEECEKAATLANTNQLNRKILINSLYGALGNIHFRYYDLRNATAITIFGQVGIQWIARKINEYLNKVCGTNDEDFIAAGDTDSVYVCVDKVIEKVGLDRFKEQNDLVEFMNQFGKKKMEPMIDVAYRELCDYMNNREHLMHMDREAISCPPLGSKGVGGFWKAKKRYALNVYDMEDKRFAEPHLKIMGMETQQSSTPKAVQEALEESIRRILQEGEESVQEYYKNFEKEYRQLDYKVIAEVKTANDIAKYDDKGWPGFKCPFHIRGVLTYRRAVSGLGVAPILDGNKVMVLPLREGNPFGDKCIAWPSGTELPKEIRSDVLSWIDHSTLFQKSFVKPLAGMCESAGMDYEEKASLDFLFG
Assay: Counter-screen against bacteriophage T4 DNA polymerase
Type: biochemical
Conditions: for % inhibition T4 10' 2.5 / % inhibition T4 10' 5 / % inhibition T4 10' 10 / % inhibition T4 10' 20 / % inhibition T4 10' 40 / % inhibition T4 10' 80: read at 10'; for % inhibition T4 10' 10 / % inhibition T4 70' 10 / % inhibition T4 130' 10 / % inhibition T4 40' 10 / % inhibition T4 90' 10 / % inhibition T4 180' 10: concentration 10; for % inhibition T4 10' 20 / % inhibition T4 70' 20 / % inhibition T4 130' 20 / % inhibition T4 40' 20 / % inhibition T4 90' 20 / % inhibition T4 180' 20: concentration 20; for % inhibition T4 10' 40 / % inhibition T4 70' 40 / % inhibition T4 130' 40 / % inhibition T4 40' 40 / % inhibition T4 90' 40 / % inhibition T4 180' 40: concentration 40; for % inhibition T4 70' 2.5 / % inhibition T4 70' 5 / % inhibition T4 70' 10 / % inhibition T4 70' 20 / % inhibition T4 70' 40 / % inhibition T4 70' 80: read at 70'; for % inhibition T4 130' 2.5 / % inhibition T4 130' 5 / % inhibition T4 130' 10 / % inhibition T4 130' 20 / % inhibition T4 130' 40 / % inhibition T4 130' 80: read at 130'; for % inhibition T4 40' 2.5 / % inhibition T4 40' 5 / % inhibition T4 40' 10 / % inhibition T4 40' 20 / % inhibition T4 40' 40 / % inhibition T4 40' 80: read at 40'; for % inhibition T4 90' 2.5 / % inhibition T4 90' 5 / % inhibition T4 90' 10 / % inhibition T4 90' 20 / % inhibition T4 90' 40 / % inhibition T4 90' 80: read at 90'; for % inhibition T4 180' 2.5 / % inhibition T4 180' 5 / % inhibition T4 180' 10 / % inhibition T4 180' 20 / % inhibition T4 180' 40 / % inhibition T4 180' 80: read at 180'
Description: Codon-optimized, exonuclease-deficient Pf-apPOL was overexpressed in E. coli BL21 (DE3) and purified as described. The protein was dialysed against two, 1-liter changes of 20 mM Tris-HCl (pH 8.0), 400 mM NaCl, and 20% glycerol. Plasmodium bergei and Babesia bovis apPOLs (Pb-apPOL and Bb-apPOL, respectively) were codon-optimized, expressed, and purified as for Pf-apPOL[15]. Bacteriophage T4 DNA polymerase was purified as described. The DNA oligonucleotides used to make the high-throughput substrate were obtained from Integrated DNA Technologies. Deoxynucleotides were purchased from Strategene. All other materials came from Fisher Scientific.
Each compound was tested in a dose-response format to determine IC50 values. […] T4 DNA polymerase can be produced in large quantities, and is in the same family (B-family) as the replicative human DNA polymerases (α, δ, and ε)[20].

CCC(C)NC(=O)c1cc(NC(C)=O)cc2nc(C)ccc12 (centres unmarked) [KU0206314]
% inhibition T4 10' (DRC-2, concentration 80): 42% | % inhibition T4 90' (DRC-2, concentration 2.5): 13% | % inhibition T4 90' (DRC-2, concentration 5): 13% | % inhibition T4 90' (DRC-2, concentration 80): 42%

O=C1c2ccccc2C(=O)N1Oc1ccc([N+](=O)[O-])c([N+](=O)[O-])c1 [Molecule 66, O=N(=O)c1cc(ccc1N(=O)=O)ON1C(=O)c2c(C1=O)cccc2]
% inhibition T4 10' (DRC-2, concentration 2.5): -5% | % inhibition T4 10' (DRC-2, concentration 5): -4% | % inhibition T4 40' (DRC-2, 40', concentration 2.5): -5% | % inhibition T4 90' (DRC-2, concentration 5): -4%

O=C1CSC2=NC3=C(CCc4ccccc43)C(c3cccs3)N12 (centres unmarked) [Molecule 59, O=C1CSC2=NC3=C(C(N12)c1cccs1)CCc1c3cccc1]
% inhibition T4 10' 2.5 (DRC-1, concentration 2.5): 10.0127% | % inhibition T4 10' 5 (DRC-1, concentration 5): 9.284% | % inhibition T4 10' 10 (DRC-1): 14.9012% | % inhibition T4 10' 20 (DRC-1): 17.5613% | % inhibition T4 10' 40 (DRC-1): 23.9437% | % inhibition T4 10' 80 (DRC-1, concentration 80): 22.8817% | % inhibition T4 70' 2.5 (DRC-1, concentration 2.5): 9.951% | % inhibition T4 70' 5 (DRC-1, concentration 5): 10.6029% | % inhibition T4 70' 10 (DRC-1): 14.1389% | % inhibition T4 70' 20 (DRC-1): 13.8668% | % inhibition T4 70' 40 (DRC-1): 19.0347% | % inhibition T4 70' 80 (DRC-1, concentration 80): 18.0959% | % inhibition T4 130' 2.5 (DRC-1, concentration 2.5): 7.352% | % inhibition T4 130' 5 (DRC-1, concentration 5): 7.713% | % inhibition T4 130' 10 (DRC-1): 10.7499% | % inhibition T4 130' 20 (DRC-1): 9.8688% | % inhibition T4 130' 40 (DRC-1): 15.3496% | % inhibition T4 130' 80 (DRC-1, concentration 80): 16.7896% | % inhibition T4 10' 2.5 (DRC-2, concentration 2.5): 31% | % inhibition T4 10' 5 (DRC-2, concentration 5): 18% | % inhibition T4 10' 10 (DRC-2): 6.37% | % inhibition T4 10' 20 (DRC-2): 8% | % inhibition T4 10' 40 (DRC-2): 6% | % inhibition T4 10' 80 (DRC-2, concentration 80): 11% | % inhibition T4 40' 2.5 (DRC-2, concentration 2.5): 31% | % inhibition T4 40' 5 (DRC-2, concentration 5): 18% | % inhibition T4 40' 10 (DRC-2): 6.37% | % inhibition T4 40' 20 (DRC-2): 8% | % inhibition T4 40' 40 (DRC-2): 6% | % inhibition T4 40' 80 (DRC-2, concentration 80): 11% | % inhibition T4 90' 2.5 (DRC-2, concentration 2.5): 30% | % inhibition T4 90' 5 (DRC-2, concentration 5): 18% | % inhibition T4 90' 10 (DRC-2): 8% | % inhibition T4 90' 20 (DRC-2): 8% | % inhibition T4 90' 40 (DRC-2): 6.37% | % inhibition T4 90' 80 (DRC-2, concentration 80): 11% | % inhibition T4 180' 2.5 (DRC-2, concentration 2.5): 24% | % inhibition T4 180' 5 (DRC-2, concentration 5): 15% | % inhibition T4 180' 10 (DRC-2): 5% | % inhibition T4 180' 20 (DRC-2): 4% | % inhibition T4 180' 40 (DRC-2): 5.53% | % inhibition T4 180' 80 (DRC-2, concentration 80): 9%

O=C(CCc1csc(NC(=O)Nc2ccccc2)n1)Nc1nc2ccccc2s1 [KU0177354]
% inhibition T4 10' 2.5 (DRC-1, concentration 2.5): 0.07751% | % inhibition T4 10' 5 (DRC-1, concentration 5): 7.751% | % inhibition T4 10' 10 (DRC-1): 13.5789% | % inhibition T4 10' 20 (DRC-1): 14.0599% | % inhibition T4 10' 40 (DRC-1): 17.0084% | % inhibition T4 10' 80 (DRC-1, concentration 80): 35.4647% | % inhibition T4 70' 2.5 (DRC-1, concentration 2.5): 1.62% | % inhibition T4 70' 5 (DRC-1, concentration 5): 6.65% | % inhibition T4 70' 10 (DRC-1): 12.106% | % inhibition T4 70' 20 (DRC-1): 12.7058% | % inhibition T4 70' 40 (DRC-1): 16.9924% | % inhibition T4 70' 80 (DRC-1, concentration 80): 32.2475% | % inhibition T4 130' 2.5 (DRC-1, concentration 2.5): -0.4187% | % inhibition T4 130' 5 (DRC-1, concentration 5): 3.945% | % inhibition T4 130' 10 (DRC-1): 9.972% | % inhibition T4 130' 20 (DRC-1): 11.4415% | % inhibition T4 130' 40 (DRC-1): 15.4247% | % inhibition T4 130' 80 (DRC-1, concentration 80): 30.1254% | % inhibition T4 10' 2.5 (DRC-2, concentration 2.5): -8% | % inhibition T4 10' 5 (DRC-2, concentration 5): 2.7% | % inhibition T4 10' 10 (DRC-2): 9% | % inhibition T4 10' 20 (DRC-2): 6.49% | % inhibition T4 10' 40 (DRC-2): 5.57% | % inhibition T4 10' 80 (DRC-2, concentration 80): 11% | % inhibition T4 40' 2.5 (DRC-2, concentration 2.5): -8% | % inhibition T4 40' 5 (DRC-2, concentration 5): 2% | % inhibition T4 40' 10 (DRC-2): 9% | % inhibition T4 40' 20 (DRC-2): 5.69% | % inhibition T4 40' 40 (DRC-2): 5% | % inhibition T4 40' 80 (DRC-2, concentration 80): 14% | % inhibition T4 90' 2.5 (DRC-2, concentration 2.5): -7% | % inhibition T4 90' 5 (DRC-2, concentration 5): 3% | % inhibition T4 90' 10 (DRC-2): 8.56% | % inhibition T4 90' 20 (DRC-2): 5.54% | % inhibition T4 90' 40 (DRC-2): 5% | % inhibition T4 90' 80 (DRC-2, concentration 80): 17% | % inhibition T4 180' 2.5 (DRC-2, concentration 2.5): -11% | % inhibition T4 180' 5 (DRC-2, concentration 5): -1.4% | % inhibition T4 180' 10 (DRC-2): 3% | % inhibition T4 180' 20 (DRC-2): 1.84% | % inhibition T4 180' 40 (DRC-2): 2.2% | % inhibition T4 180' 80 (DRC-2, concentration 80): 18%

Source: PMC9090415, “Discovery of small molecule inhibitors of Plasmodium falciparum apicoplast DNA polymerase” (Journal of Enzyme Inhibition and Medicinal Chemistry, 2022)
